Test results published in patent publication US8906953B2, “Pyrrolidine substitute flavones for the treatment of inflammatory disorders” (Piramal Enterprises Limited, priority 2010, dated 2014).

Legend:
[1] = test system: synovial fluid mononuclear cells (SFMC); test: Induction of apoptosis in synovial fluid mononuclear cells (Annexin-V/PI); assay type: cell-based, human; conditions: adherent and non-adherent SFMC from RA patients, 5 μM and 10 μM, 24 hours
Procedure: The assay was designed as in reference, Arthritis and Rheumatism, Vol. 52, No. 1, January 2005, the disclosure of which is incorporated herein by reference for the teaching of the assay.
Synovial fluid was collected from rheumatoid arthritis patients under going knee aspiration. The fluid was collected in vacutainers and processed within 2 hours of collection. SFMC were isolated using gradient centrifugation using Ficoll-Hypaque solution (Sigma). Isolated SFMC were suspended in RPMI 1640 (Rosewell Park Memorial Institute) culture medium (Sigma-Aldrich Fine Chemicals, USA) containing 20% fetal bovine serum (FBS) (JRH, USA), 100 U/ml penicillin (Sigma Chemical Co. St Louis, Mo.) and 100 μg/mL streptomycin (Sigma Chemical Co. St Louis, Mo.). The cell concentration was adjusted to 1×10^6 cells/mL. The viability as determined by trypan blue dye exclusion was uniformly >98%. 4 mL of this cell suspension was added to each well of a 6-well plate. The SFMC were incubated for 3-4 hours. Non-adherent cells were removed and cultured separately in 6-well plates. Fresh medium was added to the adherent cells. After 24 hours incubation in a humidified atmosphere at 37° C. in 5% CO2, non-adherent cells were removed and pooled with previous days samples. These cells were plated at a density of 2×10^6 cells/well. The adherent cell population was re-fed fresh complete medium. […]

TNF-α [2] = test: LPS-induced TNF-α release in Balb/c mice; assay type: in vivo; conditions: Mus musculus, plasma 1.5 hours post LPS (1 mg/kg i.p.)
Procedure: The assay was designed as in reference, J. Med. Bio. Res., 1997, 30, 1199-1207, the disclosure of which is incorporated herein by reference for the teaching of the assay. […] All suspensions were freshly prepared in 0.5% CMC. One hour later, LPS (1 mg/kg) (Escherchia coli, serotype 0127:B8, Sigma Chemical Co., St. Louis, Mo.) dissolved in sterile pyrogen-free saline was administered intra-peritoneally to the control group, standard treatment group (Rolipram, 30 mg/kg, p.o.) and test groups (compound of example 3), except the negative control group, which received normal saline. Blood samples were collected from anesthetized mice, with heparin as an anti-coagulant (25 IU per sample) 1.5 hours post LPS challenge. […] Percent inhibition of TNF-α release was calculated by comparing the TNF-α levels of the treatment groups with those of the control group.

IL-6 = test: Spontaneous IL-6 release from synovial cells of RA patients; assay type: cell-based; conditions: Homo sapiens, Synovial cell, freshly isolated synovial cells from RA patients, 16 hours
Procedure: (§1) Cytokine production in synovial cells obtained from rheumatoid arthritis patients undergoing knee replacement surgery, was measured as per the method described in reference, Lancet, 1989, 29, 244-247, the disclosure of which is incorporated herein by reference for the teaching of the assay. The synovial membrane tissue was digested by incubating at 37° C. for 3 hours in an atmosphere of 5% CO2, in Roswell Park Memorial Institute (RPMI) medium containing penicillin-G (100 U/mL), streptomycin (100 μg/mL), amphotericin B (50 ng/mL) (GIBCO), 1.33 mg/mL collagenase Type I (Worthington Biochemical Corporation, New Jersey, USA), 0.5 μg/mL DNAse Type I (SIGMA) and 8.33 U/mL heparin (Biological E. Limited, India). The digested tissue was then filtered through a membrane (mesh size 70 micron) (SIGMA), the cells were washed 3 times and suspended in complete medium (RPMI supplemented with 5% FCS and 5% human serum). The cell concentration was adjusted to 1×10^6 cells/mL. The viability as determined by trypan blue dye exclusion was uniform Ly≧98%. The cell suspension (100 μL) was added to the wells of a 96-well culture plate. […] The final concentration of DMSO was adjusted to 0.5%. The vehicle (0.5° A) DMSO) was used as control. SB 203580 (20 μM) was used as a standard. The plates were incubated for 16 hours at 37° C. in 5% CO2 atmosphere. […]

PDE4 = PDE4 inhibition, cAMP fluorescence assay in salbutamol-stimulated U937 cells; assay type: cell-based, human; conditions: for Relative Fluorescence (RF): U937 cells, salbutamol 1 μM
Procedure: Culture medium was changed every 2-3 days and always 24 hours before harvest. RPMI medium, FBS and Salbutamol were purchased from Sigma-Aldrich (USA). Rolipram was synthesized in the Medicinal Chemistry Department, Piramal Life Sciences Limited.
Rolipram was used as a standard (0.3, 1 and 3 μM). […] Fluorescence measurements were taken with Polarstar Optima (BMG Labtech-Germany).
Relative fluorescence was calculated using the following formula where: RF=Relative Fluorescence, Fo=fluorescent intensity of the blank or buffer control, F=fluorescence of cAMP or sample: RF=(Fo−F)/Fo
A standard curve was plotted using the RF values of the given standards and the values of cAMP corresponding to the test compounds were determined using the standard plot.

TNF-α [3] = test: Spontaneous TNF-α release from synovial cells of RA patients; assay type: cell-based; conditions: Homo sapiens, Synovial cell, freshly isolated synovial cells from RA patients, 16 hours
Procedure: as §1

Structure (SMILES): CN1CC[C@@H](c2c(O)cc(O)c3c(=O)cc(-c4ccc(C(F)(F)F)cc4Cl)oc23)[C@@H]1CO.Cl [Compound of example 3, (+)-trans-2-(2-Chloro-4-trifluoromethyl-phenyl)-5,7-dihydroxy-8-(2-hydroxymethyl-1-methyl-pyrrolidin-3-yl)-chromen-4-one hydrochloride]
- Induction of apoptosis (Annexin-V/PI) [1]: induces apoptosis
- inhibition at 12.5 mg/kg (TNF-α [2]; 12.5 mg/kg oral): 53.2 ± 12.5%
- inhibition at 25 mg/kg (TNF-α [2]; 25 mg/kg oral): 66.8 ± 11.5%
- inhibition at 50 mg/kg (TNF-α [2]; 50 mg/kg oral): 82 ± 4.88%
- inhibition at 75 mg/kg (TNF-α [2]; 75 mg/kg oral): 77.3 ± 8.61%
- inhibition at 100 mg/kg (TNF-α [2]; 100 mg/kg oral): 92.6 ± 3.5%
- IC50 (IL-6): 10 µM
- PDE4 inhibition (conclusion) (PDE4; U937 cells, 1, 3 and 10 μM): not a PDE4 inhibitor
- Relative Fluorescence (RF) (PDE4; concentration 1 μM): 0.71
- Relative Fluorescence (RF) (PDE4; concentration 3 μM): 0.95
- Relative Fluorescence (RF) (PDE4; concentration 10 μM): 0.95
- IC50 (TNF-α [3]): 20 µM
